Experimental data: ChEMBL document CHEMBL5291721, “A preclinical secondary pharmacology resource illuminates target-adverse drug reaction associations of marketed drugs” (Nat Commun, 2023)

What was measured:
[1] = target: T1, Cholecystokinin receptor type A (Homo sapiens, UniProt P32238)
T1 sequence (P32238 whole entry): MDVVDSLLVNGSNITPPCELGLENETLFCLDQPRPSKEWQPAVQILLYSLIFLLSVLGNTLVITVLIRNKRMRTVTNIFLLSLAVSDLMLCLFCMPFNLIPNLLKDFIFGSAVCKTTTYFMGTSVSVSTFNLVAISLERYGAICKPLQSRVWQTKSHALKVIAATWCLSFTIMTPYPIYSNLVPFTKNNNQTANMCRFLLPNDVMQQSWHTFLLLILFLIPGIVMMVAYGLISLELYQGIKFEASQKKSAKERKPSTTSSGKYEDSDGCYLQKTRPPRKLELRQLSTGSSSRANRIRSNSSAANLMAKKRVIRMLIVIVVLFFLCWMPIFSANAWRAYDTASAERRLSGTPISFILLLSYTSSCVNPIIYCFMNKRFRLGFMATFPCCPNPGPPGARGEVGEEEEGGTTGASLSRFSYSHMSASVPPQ

[2] = target: T2, Muscarinic acetylcholine receptor M2 (Homo sapiens, UniProt P08172); assay type: functional, cell-based
T2 sequence (P08172 whole entry): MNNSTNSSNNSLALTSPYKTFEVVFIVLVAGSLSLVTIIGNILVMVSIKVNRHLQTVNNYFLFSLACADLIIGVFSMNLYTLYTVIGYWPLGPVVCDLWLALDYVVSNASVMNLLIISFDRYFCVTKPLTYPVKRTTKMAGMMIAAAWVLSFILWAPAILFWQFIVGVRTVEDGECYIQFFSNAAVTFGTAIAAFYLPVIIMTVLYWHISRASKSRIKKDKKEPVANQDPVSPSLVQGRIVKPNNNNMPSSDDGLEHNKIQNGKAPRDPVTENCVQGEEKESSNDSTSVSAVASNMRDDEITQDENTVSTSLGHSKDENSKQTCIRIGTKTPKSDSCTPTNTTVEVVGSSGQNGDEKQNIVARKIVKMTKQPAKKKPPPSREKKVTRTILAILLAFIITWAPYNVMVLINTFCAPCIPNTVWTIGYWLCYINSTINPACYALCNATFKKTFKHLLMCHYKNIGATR

Endothelin-1 receptor = target: T3, Endothelin-1 receptor (Homo sapiens, UniProt P25101)
T3 sequence (P25101 whole entry): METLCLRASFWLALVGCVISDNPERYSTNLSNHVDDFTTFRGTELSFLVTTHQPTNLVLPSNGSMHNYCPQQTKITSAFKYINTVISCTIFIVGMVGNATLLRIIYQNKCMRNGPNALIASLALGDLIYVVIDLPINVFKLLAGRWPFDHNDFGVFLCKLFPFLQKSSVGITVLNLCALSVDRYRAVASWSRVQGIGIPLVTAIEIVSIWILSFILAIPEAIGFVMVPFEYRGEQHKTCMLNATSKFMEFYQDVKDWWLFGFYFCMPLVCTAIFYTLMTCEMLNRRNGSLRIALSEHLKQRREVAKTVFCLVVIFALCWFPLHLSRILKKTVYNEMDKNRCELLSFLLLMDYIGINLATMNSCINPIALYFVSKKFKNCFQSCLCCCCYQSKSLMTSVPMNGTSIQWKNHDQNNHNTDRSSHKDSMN

[3] = target: Gamma-aminobutyric acid receptor subunit alpha-1 (Rattus norvegicus, UniProt P62813)
[4] = target: Growth hormone secretagogue receptor type 1 (Homo sapiens, UniProt Q92847)
[5] = target: T4, 5-hydroxytryptamine receptor 2B (Homo sapiens, UniProt P41595); assay type: functional, cell-based
[6] = target: T4, 5-hydroxytryptamine receptor 2B; assay type: functional, cell-based; remark: listed apart in the source
[7] = target: T5, Neuropeptide Y receptor type 1 (Homo sapiens, UniProt P25929)
T5 sequence (P25929 whole entry): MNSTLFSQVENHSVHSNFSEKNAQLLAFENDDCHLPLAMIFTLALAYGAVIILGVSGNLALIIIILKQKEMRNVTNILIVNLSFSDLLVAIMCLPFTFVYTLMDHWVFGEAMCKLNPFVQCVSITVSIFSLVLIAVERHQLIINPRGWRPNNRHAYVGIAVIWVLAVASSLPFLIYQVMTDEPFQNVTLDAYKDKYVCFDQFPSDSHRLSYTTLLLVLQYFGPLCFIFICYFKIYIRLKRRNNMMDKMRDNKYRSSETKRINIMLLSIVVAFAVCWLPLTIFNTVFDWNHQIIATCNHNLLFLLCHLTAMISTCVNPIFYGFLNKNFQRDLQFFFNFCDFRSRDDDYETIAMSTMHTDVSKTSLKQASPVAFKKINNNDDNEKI

[8] = target: Kappa-type opioid receptor (Homo sapiens, UniProt P41145)
Thromboxane A2 receptor = target: T6, Thromboxane A2 receptor (Homo sapiens, UniProt P21731)
T6 sequence (P21731 whole entry): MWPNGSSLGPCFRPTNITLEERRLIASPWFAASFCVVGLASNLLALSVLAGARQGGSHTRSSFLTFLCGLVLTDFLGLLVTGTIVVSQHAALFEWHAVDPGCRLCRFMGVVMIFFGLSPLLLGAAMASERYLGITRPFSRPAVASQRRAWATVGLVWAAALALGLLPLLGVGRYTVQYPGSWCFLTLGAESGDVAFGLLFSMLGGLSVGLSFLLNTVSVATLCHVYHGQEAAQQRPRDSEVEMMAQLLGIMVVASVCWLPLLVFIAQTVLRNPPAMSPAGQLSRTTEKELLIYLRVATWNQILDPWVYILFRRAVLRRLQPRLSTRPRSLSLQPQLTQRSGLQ

Histamine H1 receptor = Histamine H1 receptor (Homo sapiens, UniProt P35367)
Further: assay procedure not described here.

T4 sequence (P41595 whole entry): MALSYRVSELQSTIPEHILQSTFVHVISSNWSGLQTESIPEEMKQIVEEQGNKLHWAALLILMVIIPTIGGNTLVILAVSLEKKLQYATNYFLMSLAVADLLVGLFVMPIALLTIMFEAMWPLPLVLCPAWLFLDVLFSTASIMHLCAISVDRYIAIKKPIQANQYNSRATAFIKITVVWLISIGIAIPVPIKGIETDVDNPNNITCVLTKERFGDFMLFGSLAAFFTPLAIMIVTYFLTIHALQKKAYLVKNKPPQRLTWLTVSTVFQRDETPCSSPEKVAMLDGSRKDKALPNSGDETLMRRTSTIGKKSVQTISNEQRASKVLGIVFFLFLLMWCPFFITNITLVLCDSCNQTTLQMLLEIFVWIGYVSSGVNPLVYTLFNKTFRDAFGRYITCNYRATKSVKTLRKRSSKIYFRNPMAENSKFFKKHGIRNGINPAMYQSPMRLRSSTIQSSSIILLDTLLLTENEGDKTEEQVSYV
Sequence of Gamma-aminobutyric acid receptor subunit alpha-1 (P62813 whole entry): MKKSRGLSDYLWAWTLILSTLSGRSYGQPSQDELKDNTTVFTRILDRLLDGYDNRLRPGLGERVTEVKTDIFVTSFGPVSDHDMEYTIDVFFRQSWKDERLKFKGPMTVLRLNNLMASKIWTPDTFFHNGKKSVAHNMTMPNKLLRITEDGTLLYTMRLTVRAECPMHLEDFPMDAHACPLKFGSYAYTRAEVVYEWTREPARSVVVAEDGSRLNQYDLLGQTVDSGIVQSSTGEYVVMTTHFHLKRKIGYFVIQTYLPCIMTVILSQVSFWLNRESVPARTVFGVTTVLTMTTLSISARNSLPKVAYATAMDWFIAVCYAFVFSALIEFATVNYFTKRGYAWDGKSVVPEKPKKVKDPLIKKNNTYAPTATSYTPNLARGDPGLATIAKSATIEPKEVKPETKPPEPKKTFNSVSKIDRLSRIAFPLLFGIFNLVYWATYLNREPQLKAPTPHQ
Sequence of Kappa-type opioid receptor (P41145 whole entry): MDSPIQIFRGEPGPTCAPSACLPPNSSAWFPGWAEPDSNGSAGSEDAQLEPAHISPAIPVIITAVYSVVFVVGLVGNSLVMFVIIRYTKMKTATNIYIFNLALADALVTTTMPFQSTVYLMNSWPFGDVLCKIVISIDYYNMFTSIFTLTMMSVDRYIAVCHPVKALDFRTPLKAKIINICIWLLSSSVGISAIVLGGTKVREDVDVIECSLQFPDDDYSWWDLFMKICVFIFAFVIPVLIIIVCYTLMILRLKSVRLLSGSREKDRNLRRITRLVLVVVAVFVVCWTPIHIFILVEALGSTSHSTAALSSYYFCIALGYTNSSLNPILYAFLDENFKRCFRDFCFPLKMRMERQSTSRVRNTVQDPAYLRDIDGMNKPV
Sequence of Growth hormone secretagogue receptor type 1 (Q92847 whole entry): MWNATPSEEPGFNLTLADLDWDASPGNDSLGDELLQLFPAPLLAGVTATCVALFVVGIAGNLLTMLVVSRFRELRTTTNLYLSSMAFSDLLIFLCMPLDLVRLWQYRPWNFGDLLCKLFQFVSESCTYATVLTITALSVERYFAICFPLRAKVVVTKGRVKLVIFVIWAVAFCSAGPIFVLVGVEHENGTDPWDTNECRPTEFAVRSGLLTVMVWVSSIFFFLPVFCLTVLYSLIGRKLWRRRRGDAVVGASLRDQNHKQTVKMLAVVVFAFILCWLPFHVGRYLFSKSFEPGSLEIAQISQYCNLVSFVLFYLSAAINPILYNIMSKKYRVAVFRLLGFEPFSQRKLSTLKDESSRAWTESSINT
Sequence of Histamine H1 receptor (P35367 whole entry): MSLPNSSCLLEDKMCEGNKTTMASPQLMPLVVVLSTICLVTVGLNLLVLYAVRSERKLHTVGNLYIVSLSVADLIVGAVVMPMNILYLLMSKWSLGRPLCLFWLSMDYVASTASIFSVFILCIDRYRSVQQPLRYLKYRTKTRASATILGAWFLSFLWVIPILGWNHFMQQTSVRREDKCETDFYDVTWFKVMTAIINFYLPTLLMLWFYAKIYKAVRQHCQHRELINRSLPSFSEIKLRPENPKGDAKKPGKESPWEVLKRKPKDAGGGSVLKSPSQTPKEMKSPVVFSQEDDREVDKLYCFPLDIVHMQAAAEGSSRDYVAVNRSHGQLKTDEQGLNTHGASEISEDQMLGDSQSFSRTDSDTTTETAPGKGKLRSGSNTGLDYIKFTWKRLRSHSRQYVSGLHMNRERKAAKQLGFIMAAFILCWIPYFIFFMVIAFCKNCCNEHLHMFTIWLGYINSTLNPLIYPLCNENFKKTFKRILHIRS

| Compound | AC50 [1] | AC50 [2] | AC50 (Endothelin-1 receptor) | AC50 [3] | AC50 [4] | AC50 [5] | AC50 [6] | AC50 [7] | AC50 [8] | AC50 (Thromboxane A2 receptor) | AC50 (Histamine H1 receptor) |
| --- | --- | --- | --- | --- | --- | --- | --- | --- | --- | --- | --- |
| COc1ccc(/C=C/C(=O)Nc2ccccc2C(=O)O)cc1OC | > 30 µM | > 30 µM | > 30 µM | > 30 µM | > 30 µM | > 30 µM | > 30 µM | > 30 µM | > 30 µM | > 30 µM |  |
| NCCCC(O)(P(=O)(O)O)P(=O)(O)O [ALENDRONIC ACID] | > 30 µM |  | > 30 µM | > 10 µM | > 30 µM |  |  | > 30 µM | > 10 µM | > 30 µM |  |
| Nc1ccc(C(=O)O)c(O)c1 [AMINOSALICYLIC ACID] | > 30 µM | > 30 µM | > 30 µM | > 30 µM | > 30 µM | > 30 µM | > 30 µM | > 30 µM | > 30 µM | > 30 µM |  |
| COc1cc(OC)c(C(=O)CCCN2CCCC2)c(OC)c1 [BUFLOMEDIL] | > 30 µM | > 30 µM | > 30 µM | > 30 µM | > 30 µM | > 30 µM | > 30 µM | > 30 µM | 4.3 µM | > 30 µM |  |
| CS(=O)(=O)OCCCCOS(C)(=O)=O [BUSULFAN] | > 30 µM | > 30 µM | > 30 µM |  | > 30 µM | > 30 µM | > 30 µM | > 30 µM | > 30 µM |  |  |
| CCCCCCNC(=O)n1cc(F)c(=O)[nH]c1=O [CARMOFUR] | > 30 µM | > 30 µM | > 30 µM | > 30 µM | > 30 µM | > 30 µM | > 30 µM | > 30 µM | > 30 µM | > 30 µM |  |
| CC(C)(C)NCC(O)c1cc(Cl)c(N)c(Cl)c1 (stereo not drawn) [CLENBUTEROL] | > 30 µM | > 30 µM | > 30 µM | > 30 µM | > 30 µM | > 30 µM | > 30 µM | > 30 µM | 28 µM | > 30 µM |  |
| COc1cccc2c1C(=O)c1c(O)c3c(c(O)c1C2=O)C[C@@](O)(C(C)=O)C[C@@H]3O[C@H]1C[C@H](N)[C@H](O)[C@H](C)O1 [DAUNORUBICIN] | 24 µM |  | > 30 µM | > 30 µM | 5.17 µM |  |  | > 10 µM | > 30 µM | 25 µM |  |
| CC(=O)OCC(CCn1cnc2cnc(N)nc21)COC(C)=O [FAMCICLOVIR] | > 30 µM | > 10 µM | > 30 µM | > 10 µM | > 30 µM | > 10 µM | > 10 µM | > 30 µM | > 10 µM | > 30 µM |  |
| Nc1ccn([C@@H]2O[C@H](CO)[C@@H](O)C2(F)F)c(=O)n1 [GEMCITABINE] | > 30 µM | > 10 µM |  | > 10 µM | > 30 µM | > 10 µM | > 10 µM | > 30 µM | > 10 µM | > 30 µM |  |
| COC1=C(OC)C(=O)C(CCCCCCCCCCO)=C(C)C1=O [IDEBENONE] | > 30 µM | > 10 µM | > 30 µM | > 10 µM | > 30 µM | > 10 µM | > 10 µM | > 30 µM | > 10 µM | 31.2 µM |  |
| Nc1nc2c(c(=O)[nH]1)N(C=O)C(CNc1ccc(C(=O)N[C@@H](CCC(=O)O)C(=O)O)cc1)CN2 (stereo partly drawn) [LEUCOVORIN] | > 30 µM | > 30 µM | > 30 µM | > 30 µM | > 30 µM | > 30 µM | > 30 µM | > 30 µM | > 30 µM | > 30 µM |  |
| CCn1cc(C(=O)O)c(=O)c2cc(F)c(N3CCN(C)CC3)cc21 [PEFLOXACIN] | > 30 µM | > 30 µM | > 30 µM | > 30 µM | > 30 µM | > 30 µM | > 30 µM | > 30 µM |  |  |  |
| C[n+]1ccccc1/C=N/O [PRALIDOXIME] |  |  |  | > 30 µM |  | > 30 µM | > 30 µM |  | > 30 µM |  |  |
| CCCNC(C)C(=O)Nc1ccccc1C (stereo not drawn) [PRILOCAINE] | > 30 µM | > 30 µM | > 30 µM |  | > 30 µM | > 30 µM | > 30 µM | > 30 µM | > 30 µM |  |  |
| CC(C)CC(N(C)C)C1(c2ccc(Cl)cc2)CCC1 (stereo not drawn) [SIBUTRAMINE] | > 30 µM | 19 µM | > 30 µM | > 10 µM | > 30 µM |  |  | > 30 µM |  | > 30 µM |  |
| [H]/N=C(/N)N[C@H]1[C@H](O)[C@@H](O)[C@H](O[C@@H]2O[C@@H](C)[C@](O)(C=O)[C@H]2O[C@@H]2O[C@@H](CO)[C@H](O)[C@@H](O)[C@@H]2NC)[C@@H](N/C(N)=N\[H])[C@@H]1O [STREPTOMYCIN] | > 30 µM | > 30 µM | > 30 µM | > 30 µM | > 30 µM | > 30 µM | > 30 µM | > 30 µM | > 30 µM | > 30 µM |  |
| CC(C)(C)NC[C@H](O)COc1nsnc1N1CCOCC1 [TIMOLOL] | > 30 µM | > 30 µM | > 30 µM | > 30 µM | > 30 µM | > 30 µM | > 30 µM | > 30 µM | > 30 µM | > 30 µM |  |
| Cc1cccc(N(C)C(=S)Oc2ccc3ccccc3c2)c1 [TOLNAFTATE] | > 10 µM | > 10 µM |  | > 10 µM | > 10 µM | > 10 µM | > 10 µM | > 10 µM | > 10 µM | > 10 µM |  |
| CN1[C@@H]2CC[C@H]1C[C@@H](OC(=O)c1c[nH]c3ccccc13)C2 [TROPISETRON] | > 10 µM | > 30 µM | > 30 µM | > 30 µM | > 30 µM | > 30 µM | 15 µM | > 30 µM | > 30 µM | > 30 µM |  |
| COc1ccc(C(CN(C)C)C2(O)CCCCC2)cc1 (stereo not drawn) [VENLAFAXINE] | > 30 µM | > 10 µM |  | > 10 µM | > 30 µM |  |  | > 30 µM | > 10 µM |  |  |
| COLISTIN |  |  |  | > 30 µM |  | > 30 µM | > 30 µM |  | > 30 µM |  | > 30 µM |
